This passage reports TGI and GI50 results from PubChem BioAssay (NCI).

Among the test systems are SK-OV-3 ovarian; NCI-H522 lung; OVCAR-5 ovarian; UACC-62 melanoma; UO-31 renal; MALME-3M melanoma; RPMI-8226 leukemia; COLO 205 colon; A549 NSCLC; OVCAR-8 ovarian.
Holding throughout (assay): NCI tumour cell line growth inhibition, 48 h

Structures are written as SMILES.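 In this assay, cells in 96-well plates receive the compound at five concentrations for 48 hours. Endpoints are linearly interpolated between the surrounding concentrations. GI50 is the concentration that inhibits growth by half. Definition used: TGI = concentration required for complete inhibition of growth.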

Consider `Cc1cccc(NC(N)=S)c1`, for which the TGI with SK-OV-3 ovarian, with NCI-H522 lung, in the assay with OVCAR-5 ovarian, in the assay with UACC-62 melanoma, in the assay on UO-31 renal and in the assay with MALME-3M melanoma was > 100 µM throughout.
Take `O=C(O)\C=C/C=C/C=C/C=C/C(=O)O`: the TGI in the assay on RPMI-8226 leukemia, with SK-OV-3 ovarian, in the assay with NCI-H522 lung, in the assay on COLO 205 colon, in the assay with OVCAR-5 ovarian and in the assay with A549 NSCLC was > 100 µM each time. Besides, the TGI in the assay on UACC-62 melanoma, in the assay with UO-31 renal, in the assay on OVCAR-8 ovarian and with MALME-3M melanoma was > 100 µM each time.
With `COc1ccc(C(=O)NNC(=O)c2nsc3ccccc23)cc1`, the TGI with RPMI-8226 leukemia, in the assay on COLO 205 colon, in the assay with OVCAR-5 ovarian, in the assay on A549 NSCLC, in the assay with UACC-62 melanoma and in the assay on UO-31 renal was > 100 µM throughout. Also, the TGI in the assay with OVCAR-8 ovarian was > 100 µM.
For `N=C(N)SC(c1ccccc1)c1ccccc1`, the TGI was 31.7 µM in the assay with RPMI-8226 leukemia; > 100 µM with SK-OV-3 ovarian; 34.8 µM in the assay on NCI-H522 lung; 47.1 µM in the assay with COLO 205 colon; 32.2 µM with OVCAR-5 ovarian; 95.2 µM with A549 NSCLC. Also, the TGI was found to be 30.8 µM in the assay with UACC-62 melanoma, 23.2 µM with UO-31 renal, 36.4 µM in the assay on OVCAR-8 ovarian and 34.6 µM in the assay on MALME-3M melanoma.
In the case of `Cn1ncc2c(=O)[nH]c(-c3ccccc3)nc21`, the TGI with RPMI-8226 leukemia, in the assay with SK-OV-3 ovarian, in the assay with NCI-H522 lung, in the assay on COLO 205 colon, in the assay on OVCAR-5 ovarian and with A549 NSCLC was > 100 µM throughout. Besides, the TGI in the assay on UACC-62 melanoma, in the assay with UO-31 renal, in the assay on OVCAR-8 ovarian and with MALME-3M melanoma was > 100 µM in each case.
As to `NS(=O)(=O)c1ccc(C(=O)O)cc1`, the TGI in the assay with RPMI-8226 leukemia, in the assay on SK-OV-3 ovarian, in the assay on NCI-H522 lung, in the assay on COLO 205 colon, in the assay with OVCAR-5 ovarian and in the assay on A549 NSCLC was > 100 µM in each case. The TGI in the assay on UACC-62 melanoma, in the assay on UO-31 renal, in the assay with OVCAR-8 ovarian and in the assay with MALME-3M melanoma was > 100 µM throughout.
For the compound `COc1ccc2c(c1)C(=O)c1c-2n(CCCCl)c(=O)c2cc([N+](=O)[O-])ccc12`, the GI50 in the assay on RPMI-8226 leukemia was 0.075 µM; in the assay with SK-OV-3 ovarian, 0.569 µM; in the assay on NCI-H522 lung it was < 0.0265 µM; with COLO 205 colon, 0.902 µM; with OVCAR-5 ovarian, 1.26 µM; in the assay on A549 NSCLC it was 0.196 µM. The GI50 in the assay on OVCAR-8 ovarian is 0.289 µM; in the assay with MALME-3M melanoma it was 0.0533 µM. Moreover, the TGI in the assay on RPMI-8226 leukemia was 1.6 µM; with SK-OV-3 ovarian, > 100 µM; in the assay with NCI-H522 lung it was 0.963 µM; in the assay on COLO 205 colon, > 100 µM; in the assay with OVCAR-5 ovarian, > 26.4 µM; in the assay with A549 NSCLC it was > 100 µM. Further, the TGI in the assay on UACC-62 melanoma is 1.81 µM; in the assay with OVCAR-8 ovarian, > 100 µM; in the assay with MALME-3M melanoma, 0.461 µM.
For the compound `CC(C)(c1ccccc1)c1ccc(Oc2ccc3c(c2)-c2nc-3nc3[nH]c(nc4nc(nc5[nH]c(n2)c2ccc(Oc6ccc(C(C)(C)c7ccccc7)cc6)cc52)-c2cc(Oc5ccc(C(C)(C)c6ccccc6)cc5)ccc2-4)c2ccc(Oc4ccc(C(C)(C)c5ccccc5)cc4)cc32)cc1`, the TGI in the assay on RPMI-8226 leukemia, in the assay on SK-OV-3 ovarian, in the assay with NCI-H522 lung, in the assay with COLO 205 colon, with OVCAR-5 ovarian and in the assay on A549 NSCLC was > 100 µM throughout. Further, the TGI in the assay with UACC-62 melanoma, in the assay on UO-31 renal, in the assay on OVCAR-8 ovarian and in the assay on MALME-3M melanoma was > 100 µM each time.
With `Nc1ccc([As](=O)(O)O)cc1`, the TGI with SK-OV-3 ovarian, in the assay with NCI-H522 lung, in the assay on COLO 205 colon, in the assay on OVCAR-5 ovarian, in the assay with A549 NSCLC and with UACC-62 melanoma was > 100 µM each time. Also, the TGI in the assay on UO-31 renal, with OVCAR-8 ovarian and in the assay on MALME-3M melanoma was > 100 µM each time.
With `Cc1nc2ccccc2c(=O)n1Nc1ccc(C(=O)O)cc1`, the TGI with RPMI-8226 leukemia, in the assay with SK-OV-3 ovarian, in the assay with NCI-H522 lung, in the assay with COLO 205 colon, in the assay with OVCAR-5 ovarian and in the assay with A549 NSCLC was > 100 µM each time. For the same compound, the TGI in the assay with UACC-62 melanoma, with UO-31 renal, with OVCAR-8 ovarian and with MALME-3M melanoma was > 100 µM in each case.
Regarding `COc1cc2c(cc1OCCCOc1cc3c(cc1OC)C(=O)N1CC(F)(F)C[C@H]1C=N3)N=C[C@@H]1CC(F)(F)CN1C2=O`, the GI50 is 1.64 µM with RPMI-8226 leukemia; 1.02 µM in the assay on SK-OV-3 ovarian; 0.228 µM with NCI-H522 lung; 0.814 µM with COLO 205 colon; 1.74 µM in the assay on OVCAR-5 ovarian; 3.79 µM in the assay on A549 NSCLC. Besides, the GI50 in the assay with UACC-62 melanoma was 0.365 µM; in the assay with UO-31 renal, 1.24 µM; in the assay on OVCAR-8 ovarian, 0.899 µM; in the assay on MALME-3M melanoma, 1.27 µM. Further, the TGI with RPMI-8226 leukemia is 5.79 µM; in the assay on SK-OV-3 ovarian it was > 30.3 µM; with NCI-H522 lung, 1.03 µM; with COLO 205 colon it was 2.49 µM; with OVCAR-5 ovarian, 8.99 µM; in the assay with A549 NSCLC it was > 100 µM. Also, the TGI in the assay on UACC-62 melanoma was 1.82 µM; in the assay with UO-31 renal, > 33.1 µM; in the assay on OVCAR-8 ovarian, 9.16 µM; in the assay on MALME-3M melanoma, 3.19 µM.
For `O=C1CC(c2ccccc2)NCCCCN2CC(CN1)C(C(O)c1ccccc1)C2=O` (centres undefined), the TGI in the assay with SK-OV-3 ovarian, in the assay with NCI-H522 lung, with COLO 205 colon, with OVCAR-5 ovarian, with A549 NSCLC and in the assay with UACC-62 melanoma was > 100 µM in each case. Also, the TGI in the assay with UO-31 renal, with OVCAR-8 ovarian and in the assay with MALME-3M melanoma was > 100 µM in each case.
On to `CC1(C)CCc2cc3c(cc2O1)OC(C)(C)CC3=O`, for which the TGI in the assay with RPMI-8226 leukemia, in the assay with SK-OV-3 ovarian, in the assay on NCI-H522 lung, with COLO 205 colon, in the assay on OVCAR-5 ovarian and in the assay on A549 NSCLC was > 100 µM each time. In addition, the TGI in the assay with UACC-62 melanoma, with UO-31 renal and with OVCAR-8 ovarian was > 100 µM throughout.
Take `Cc1cc(N2CCCCC2)nc(NCc2cc(Nc3ccnc4cc(Cl)ccc34)ccc2F)n1`: the GI50 with RPMI-8226 leukemia is 1.88 µM; in the assay on SK-OV-3 ovarian it was 1.93 µM; in the assay on NCI-H522 lung, 1.71 µM; in the assay on COLO 205 colon it was 0.329 µM; with A549 NSCLC, 1.7 µM; in the assay on UACC-62 melanoma, 1.62 µM. In addition, the values for the GI50 in the assay on UO-31 renal and in the assay with OVCAR-8 ovarian were 1.61 µM and 2.05 µM, respectively. Besides, the TGI in the assay with RPMI-8226 leukemia amounted to 4.55 µM; in the assay on SK-OV-3 ovarian, 3.48 µM; with NCI-H522 lung, 3.37 µM; in the assay on COLO 205 colon, 1.4 µM; in the assay on A549 NSCLC, 3.22 µM; in the assay on UACC-62 melanoma, 3.44 µM. The TGI with UO-31 renal is 3.13 µM; in the assay on OVCAR-8 ovarian, 4.68 µM.
For `CCc1cc(C)cc2[n+]1CC=C2C`, the TGI in the assay on NCI-H522 lung, with COLO 205 colon, with OVCAR-5 ovarian, with A549 NSCLC, in the assay on UO-31 renal and in the assay on OVCAR-8 ovarian was > 100 µM each time. The TGI with MALME-3M melanoma was > 100 µM.
Take `CC1(C)CCCC2(C)C3=C(CCC12)C(=O)OC3` (centres undefined): the TGI in the assay with RPMI-8226 leukemia was 68.5 µM; in the assay on SK-OV-3 ovarian it was > 100 µM; with NCI-H522 lung, > 100 µM; with COLO 205 colon, > 100 µM; with OVCAR-5 ovarian, > 100 µM; in the assay with A549 NSCLC, > 100 µM. The TGI with UACC-62 melanoma, with UO-31 renal, in the assay on OVCAR-8 ovarian and in the assay with MALME-3M melanoma was > 100 µM throughout.
In the case of `CCCCCCCCCCCCCCC(C(=O)[O-])[n+]1ccccc1` (centres undefined), the TGI in the assay on RPMI-8226 leukemia, in the assay with SK-OV-3 ovarian, in the assay on NCI-H522 lung, in the assay with COLO 205 colon, with OVCAR-5 ovarian and with A549 NSCLC was > 100 µM each time. For the same compound, the TGI in the assay with UACC-62 melanoma, in the assay with UO-31 renal and with OVCAR-8 ovarian was > 100 µM in each case.
Take `CN(C)C=O.CN(C)C=O.CN1C(C(=O)Nc2ccccn2)=C([O-])c2ccccc2S1(=O)=O.CN1C(C(=O)Nc2ccccn2)=C([O-])c2ccccc2S1(=O)=O.[Cu+2]`: the TGI in the assay with RPMI-8226 leukemia was > 100 µM; with SK-OV-3 ovarian, 45.8 µM; in the assay with NCI-H522 lung, > 100 µM; in the assay with COLO 205 colon, > 100 µM; in the assay with OVCAR-5 ovarian it was > 100 µM; in the assay on A549 NSCLC, > 100 µM. Also, the TGI in the assay on UACC-62 melanoma is 41.2 µM; in the assay with UO-31 renal, > 100 µM; in the assay with OVCAR-8 ovarian, > 100 µM; with MALME-3M melanoma it was > 100 µM.
